In patent US6831075B2, “Heterocyclic substituted pyrazolones” (Cephalon, Inc., priority 1999, dated 2004) one finds inhibition data, which are given here for 2 molecules.

Molecules are shown by their SMILES.

The test concerns the target T1, recombinant human baculoviral VEGFR2 cyctoplasmic domain (Homo sapiens, UniProt P35968).
T1 construct: recombinant human baculoviral VEGFR2 cyctoplasmic domain; host or cells: baculovirus expression system
Kind of test: VEGFR2 kinase inhibition assay (ELISA-based, time-resolved fluorescence). The conditions noted are these: 1 uM compound; 30 μM ATP; read-out: VEGFR-2 kinase % inhibition @ 1 uM. In kind it is biochemical. On the procedure: Inhibition of Vascular Endothelial Growth Factor Receptor-2 Kinase Activity
Assay were performed as described for trkA kinase below. The 96-well microtiter plate (FluoroNUNC Maxisorp) was coated with 40 μg/ml recombinant human phospholipase C-γ1/glutathione S-transferase fusion protein. Inhibition studies were performed in 100 μl assay mixtures containing 50 mM HEPES, pH 7.4, 30 μM ATP, 10 mM MnCl2, 0.1% BSA, 2% DMSO, and 1 μM of test compound. The reaction was initiated by adding prephosphorylated recombinant human baculoviral VEGFR2 cyctoplasmic domain. The reaction was allowed to proceed for 15 minutes at 37° C. The detection antibody, eurpium-labeled anti-phosphotyrosine antibody (Wallac #CR04-100), was added at 1:5000 dilution in block buffer (3% BSA in TBST).
(In general: In an ELISA, binding on a coated surface is turned into a signal by an enzyme label.)

T1 sequence (P35968 786-1356 limits assumed): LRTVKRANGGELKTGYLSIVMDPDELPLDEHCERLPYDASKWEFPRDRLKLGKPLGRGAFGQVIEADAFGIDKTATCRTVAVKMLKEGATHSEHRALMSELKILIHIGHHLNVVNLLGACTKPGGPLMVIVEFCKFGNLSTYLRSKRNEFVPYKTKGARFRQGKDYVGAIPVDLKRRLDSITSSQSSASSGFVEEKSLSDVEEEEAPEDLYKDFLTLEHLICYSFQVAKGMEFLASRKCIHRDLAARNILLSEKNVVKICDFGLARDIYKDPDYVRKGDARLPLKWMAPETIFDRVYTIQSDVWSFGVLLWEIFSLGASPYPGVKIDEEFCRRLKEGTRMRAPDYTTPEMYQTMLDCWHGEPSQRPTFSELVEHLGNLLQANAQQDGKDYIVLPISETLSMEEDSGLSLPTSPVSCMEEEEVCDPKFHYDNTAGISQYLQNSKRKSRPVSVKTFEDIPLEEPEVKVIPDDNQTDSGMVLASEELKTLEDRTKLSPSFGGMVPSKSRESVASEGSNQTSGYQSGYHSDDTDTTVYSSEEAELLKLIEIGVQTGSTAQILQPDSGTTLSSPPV

Regarding `Cc1cc(C)c(CC2C(=O)NN=C2c2c[nH]c3ccccc23)[nH]1` (centres unmarked) [Compound 77, 4-[(3,5-dimethylpyrrol-2-yl)methyl]-3-indol-3-yl-2-pyrazolin-5-one], the inhibition (usually how much of the control response was suppressed) at 1 µM is 21%.

In the case of `Cc1cc(C)c(C=C2C(=O)NN=C2c2c[nH]c3ccccc23)[nH]1` [Compound 76, 4-[(3,5-dimethylpyrrol-2-yl)methylene]-3-indol-3-yl-2-pyrazolin-5-one], the inhibition at 1 µM was 39%.
